Source: PMC11167047 (Cell Death Discovery, 2024)

How the values were obtained:
Assay in all cases: kinome screen (33PanQinase)
Type in all cases: biochemical
[1] = biological target: T1, EPHA8 (Homo sapiens, UniProt P29322)
T1 construct: purchased Reaction Biology Europe GmbH (formerly ProQinase)
T1 sequence (P29322 28-1005): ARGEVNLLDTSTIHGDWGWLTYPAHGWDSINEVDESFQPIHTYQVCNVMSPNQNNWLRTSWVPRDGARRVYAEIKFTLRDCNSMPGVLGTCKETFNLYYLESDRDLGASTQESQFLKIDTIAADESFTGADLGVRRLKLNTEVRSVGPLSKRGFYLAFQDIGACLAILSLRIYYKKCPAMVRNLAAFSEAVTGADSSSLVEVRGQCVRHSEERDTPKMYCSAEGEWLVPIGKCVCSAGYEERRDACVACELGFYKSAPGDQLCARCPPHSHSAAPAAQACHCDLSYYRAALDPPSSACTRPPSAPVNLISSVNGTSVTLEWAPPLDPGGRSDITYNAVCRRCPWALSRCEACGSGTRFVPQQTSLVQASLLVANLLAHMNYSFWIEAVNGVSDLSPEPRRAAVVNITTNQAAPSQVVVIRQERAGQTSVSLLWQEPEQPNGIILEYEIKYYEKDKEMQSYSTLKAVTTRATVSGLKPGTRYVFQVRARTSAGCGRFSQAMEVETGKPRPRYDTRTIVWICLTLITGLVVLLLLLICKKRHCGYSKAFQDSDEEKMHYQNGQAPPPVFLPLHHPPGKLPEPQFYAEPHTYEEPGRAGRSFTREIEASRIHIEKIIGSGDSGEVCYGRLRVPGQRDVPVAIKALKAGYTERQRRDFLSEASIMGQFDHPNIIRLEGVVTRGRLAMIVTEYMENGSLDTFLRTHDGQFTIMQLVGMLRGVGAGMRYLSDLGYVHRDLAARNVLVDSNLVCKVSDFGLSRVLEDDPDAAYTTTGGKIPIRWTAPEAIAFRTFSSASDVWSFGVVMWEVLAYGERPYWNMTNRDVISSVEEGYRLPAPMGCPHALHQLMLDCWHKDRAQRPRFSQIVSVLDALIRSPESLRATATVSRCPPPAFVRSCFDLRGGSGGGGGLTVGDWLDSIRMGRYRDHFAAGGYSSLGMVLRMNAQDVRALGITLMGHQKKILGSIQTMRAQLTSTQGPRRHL
Experimental: (§1) The Kinome Screening was performed by Reaction Biology Europe GmbH (http://reactionbiology.com; Freiburg i. Br., Germany).

[2] = biological target: T2, GRK2 (Homo sapiens, UniProt P25098)
T2 construct: purchased Reaction Biology Europe GmbH (formerly ProQinase)
T2 sequence (P25098 1-689): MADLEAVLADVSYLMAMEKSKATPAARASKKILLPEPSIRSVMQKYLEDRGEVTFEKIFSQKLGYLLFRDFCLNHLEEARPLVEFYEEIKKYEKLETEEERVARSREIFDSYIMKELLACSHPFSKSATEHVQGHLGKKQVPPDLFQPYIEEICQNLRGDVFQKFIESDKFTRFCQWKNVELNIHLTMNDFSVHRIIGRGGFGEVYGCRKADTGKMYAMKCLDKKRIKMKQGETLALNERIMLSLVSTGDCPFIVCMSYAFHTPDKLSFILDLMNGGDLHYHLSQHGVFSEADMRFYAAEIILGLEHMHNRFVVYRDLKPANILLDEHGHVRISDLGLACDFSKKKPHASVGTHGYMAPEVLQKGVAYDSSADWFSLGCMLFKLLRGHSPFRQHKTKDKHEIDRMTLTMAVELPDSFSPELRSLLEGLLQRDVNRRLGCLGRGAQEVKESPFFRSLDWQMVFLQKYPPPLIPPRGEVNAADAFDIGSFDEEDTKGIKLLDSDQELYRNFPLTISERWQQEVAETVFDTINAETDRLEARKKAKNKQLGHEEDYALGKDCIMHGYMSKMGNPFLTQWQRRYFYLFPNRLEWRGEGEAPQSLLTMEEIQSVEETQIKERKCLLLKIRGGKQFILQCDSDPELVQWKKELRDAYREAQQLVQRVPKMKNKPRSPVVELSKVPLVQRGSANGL
Experimental: as §1

[3] = biological target: T3, TYRO3 (Homo sapiens, UniProt Q06418)
T3 construct: purchased Reaction Biology Europe GmbH (formerly ProQinase)
T3 sequence (Q06418 41-890): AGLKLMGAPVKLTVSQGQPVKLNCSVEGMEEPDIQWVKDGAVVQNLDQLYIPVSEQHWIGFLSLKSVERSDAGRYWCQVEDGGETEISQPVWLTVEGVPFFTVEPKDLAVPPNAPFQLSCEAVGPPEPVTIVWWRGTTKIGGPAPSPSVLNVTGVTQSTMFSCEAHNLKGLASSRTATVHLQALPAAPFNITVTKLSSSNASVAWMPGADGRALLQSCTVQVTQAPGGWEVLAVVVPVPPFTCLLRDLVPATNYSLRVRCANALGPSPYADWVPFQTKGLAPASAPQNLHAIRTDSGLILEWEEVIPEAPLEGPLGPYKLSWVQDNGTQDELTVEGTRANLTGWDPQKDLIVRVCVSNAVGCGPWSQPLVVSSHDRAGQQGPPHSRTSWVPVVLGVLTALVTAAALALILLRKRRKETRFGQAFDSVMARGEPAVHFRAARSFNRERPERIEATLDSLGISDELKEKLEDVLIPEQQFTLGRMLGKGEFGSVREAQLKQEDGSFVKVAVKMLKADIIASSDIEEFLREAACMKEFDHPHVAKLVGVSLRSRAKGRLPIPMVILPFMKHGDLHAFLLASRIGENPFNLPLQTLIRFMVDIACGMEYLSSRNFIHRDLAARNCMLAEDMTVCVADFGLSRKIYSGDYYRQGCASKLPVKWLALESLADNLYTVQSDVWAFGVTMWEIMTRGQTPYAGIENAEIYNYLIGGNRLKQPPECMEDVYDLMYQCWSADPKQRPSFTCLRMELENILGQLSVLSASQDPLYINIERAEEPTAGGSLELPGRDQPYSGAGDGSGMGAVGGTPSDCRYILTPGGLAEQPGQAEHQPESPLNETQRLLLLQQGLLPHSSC
Experimental: as §1

SMILES | residual kinase activity ([1]; 0.3 µM) | residual kinase activity ([1]; 3 µM) | residual kinase activity ([2]; 0.3 µM) | residual kinase activity ([2]; 3 µM) | residual kinase activity ([3]; 0.3 µM) | residual kinase activity ([3]; 3 µM) | residual kinase activity ([1]; 0.03 µM) | residual kinase activity ([2]; 0.03 µM) | residual kinase activity ([3]; 0.03 µM)
c1ccc(CNc2cc(-c3c[nH]c4ncccc34)ccn2)cc1 [meriolin 36] | 113 % of control | 94 % of control | 99 % of control | 51 % of control | 94 % of control | 64 % of control | – | – | –
COc1ccnc2[nH]cc(-c3cc(N)nc(N)c3)c12 [meriolin 16] | 107 % of control | – | 106 % of control | – | 89 % of control | – | 119 % of control | 96 % of control | 104 % of control
